Reference: patent US8785483B2, “Methods for treating COPD” (The Board of Regents of the University of Texas System, priority 2010, dated 2014)

Key:
Muc5AC = Muc5AC ELISA in culture medium; type: cell-based, human; settings: airway epithelial monolayer, IL-13 48 h
Experimental: FIGS. 5A-5B. AR inhibition prevents IL-13-induced goblet cell metaplasia and expression of Muc5AC in airway epithelial monolayer. (A) The well-differentiated airway epithelial cells at air-liquid interface (ALI) were incubated with IL-13 for 48 h without or with AR inhibitor, fidarestat. The monolayer was fixed as described and immunohistochemistry using Muc5AC antibodies was performed on the sections. A representative photomicrograph is shown (n=4); magnification 400×. […] (C) The airway epithelial monolayer was incubated with IL-13 submerged in basal medium for 48 h in the absence and presence of AR inhibitor, fidarestat. The culture medium was collected from the top chamber and utilized for determination of Muc5AC by an ELISA, (n=4); *p<0.005 vs Control; **p<0.01 vs IL-13. For air-liquid interface (ALI) culture, SAEC were seeded at 8.5×10^4 cells/12-mm-diameter PET transparent insert with […] pores (12-well millicell culture insert; Millipore) and pre-coated with rat tail collagen type-1 (Sigma-Aldrich). The cells were grown submerged in the differentiation medium as described earlier by Zhen et al. (Am J Respir Cell Mol Biol 36: 244-253, 2007). […] Muc5AC levels in the culture medium were assessed by ELISA using commercially available human anti-Muc5AC ELISA essentially as described by the manufacturer (Cosmo Bio USA; Carlsbad, Calif.).

Muc5B = assay: Western blot of Muc5B in IL-13-treated SAEC monolayer; type: cell-based, human; settings: IL-13 48 h, immunoblotting
Experimental: FIGS. 6A-6B. AR inhibition prevents IL-13-induced expression of Mucin and transcription factor SPDEF in airway epithelial cell monolayer. (A) The airway epithelial cell monolayer at ALI was serum starved without or with fidarestat and incubated with IL-13 for 18 h. Total RNA was isolated and subsequently RT-PCR was performed to assess the expression of Muc5AC and SPDEF. The bar diagrams show densitometric analysis of the corresponding blots (n=4). *p<0.001 vs Control; **p<0.001 vs IL-13; (B) The monolayer of ciliated airway cells at ALI was treated with AR inhibitor for 24 h and subsequently incubated with IL-13 for 24 or 48 h. At the end of incubation, cell lysate was prepared and subjected to western blotting using antibodies against Muc5AC, Muc5B, and SPDEF. The membranes were stripped and re-probed with antibodies against GAPDH to show the equal loading of protein. A representative blot is shown (n=4). *p<0.0001 vs Control; **p<0.001 vs IL-13. […] Protein levels were determined using Bradford reagent (Biorad, Hercules, Calif.). […] The blots were then washed, exposed to HRP-conjugated secondary antibodies (1:5,000 dilution) for 1 h, and the antigen-antibody complex was detected by enhanced chemiluminescence (Amersham Pharmacia Biotech, Piscataway, N.J., USA). […]

## NC(=O)[C@@H]1C[C@]2(NC(=O)NC2=O)c2cc(F)ccc2O1 [fidarestat, (2S,4S)-2-aminoformyl-6-fluoro-spiro[chroman-4,4′-imidazolidine]-2′,5′-dione]
Muc5AC
  prevention of IL-13-induced secretion of Muc5AC in the medium: ~80%
Muc5B
  prevention of IL-13-induced increase in Muc5B protein: ~50%
